Experimental data taken from publication PMC7320011, “Rationally designed ruthenium complexes for 1- and 2-photon photodynamic therapy” (Nature Communications, 2020).
Where two headings read alike, the source gives them in different places.

Columns and labels:
[1] = Emission and luminescence quantum yield; assay type: physicochemical; details: acetonitrile
Procedure: The absorption spectra of the sample was measured with a SpectraMax M2 Spectrometer (Molecular Devices). For the measurements of the emission, the sample was irradiated at 355 nm with a NT342B Nd-YAG pumped optical parametric oscillator (Ekspla). The emission was focused at right angle to the excitation pathway and directed to a Princeton Instruments Acton SP-2300i monochromator. The signal was detected with a XPI-Max 4 CCD camera (Princeton Instruments).
The sample was prepared in an acetonitrile solution with an absorption of 0.1 at 355 nm. The sample was irradiated at 355 nm with a NT342B Nd-YAG pumped optical parametric oscillator (Ekspla). The emission was focused at right angle to the excitation pathway and directed to a Princeton Instruments Acton SP-2300i monochromator. The signal was detected with a XPI-Max 4 CCD camera (Princeton Instruments). The luminescence quantum yields were determined by comparison with the reference [Ru(2,2′-bipyridine)3]Cl2 in acetonitrile (Φem = 5.9%)[58] applying the following formula:2 Φem,sample=Φem,reference×Freference/Fsample×Isample/Ireference×nsample/nreference^2, 3 F=1−10^-A. Φem = luminescence quantum yield, F = fraction of light absorbed, I = integrated emission intensities, n = refractive index, A = absorbance of the sample at irradiation wavelength.

Excited state lifetime = assay type: physicochemical; details: for τ air, excited state lifetime: air saturated acetonitrile; for τ degassed, excited state lifetime: degassed acetonitrile
Procedure: The sample was prepared in an air saturated as well as a degassed acetonitrile solution with an absorption of 0.2 at 355 nm. The sample was irradiated at 355 nm with a NT342B Nd-YAG pumped optical parametric oscillator (Ekspla). The emission was focused at right angle to the excitation pathway and directed to a Princeton Instruments Acton SP-2300i monochromator. The signal was detected with a R928 photomultiplier tube (Hamamatsu).

[2] = Singlet oxygen quantum yield, direct evaluation (1O2 phosphorescence); assay type: physicochemical
Procedure: Direct evaluation: the sample was prepared in an air-saturated acetonitrile or deuterated water solution with an absorption of 0.2 at 450 nm. The sample was irradiated at 450 nm with a mounted M450LP1 LED (Thorlabs), whose light was focused with aspheric condenser lenses. Using a T-Cube LED Driver (Thorlabs), the intensity of the irradiation was varied and monitored with an optical power and energy meter. The emission was focused at right angle to the excitation pathway and directed to a Princeton Instruments Acton SP-2300i monochromator. To cut off light at wavelengths shorter than 850 nm, a longpass glass filter was placed in front of the monochromator entrance slit. The signal was detected with an EO-817L IR-sensitive liquid-nitrogen cooled germanium diode detector (North Coast Scientific Corp.). The luminescence signal, centered at 1270 nm, was measured from 1100 to 1400 nm. The obtained data were analyzed upon plotting the integrated luminescence peaks against the percentage of the irradiation intensity. The slope of the linear regression was calculated and compared with the reference Rose Bengal (Φ = 76%)[59]. The absorption of the sample was corrected with an absorption correction factor. The singlet oxygen quantum yields were calculated using the following formula:4 Φsample=Φreference×Ssample/Sreference×Ireference/Isample, 5 I=I0×1−10^-A.
Φ = singlet oxygen quantum yield, S = slope of the linear regression of the plot of the areas of the singlet oxygen luminescence peaks against the irradiation intensity, I = absorption correction factor, I0 = light intensity of the irradiation source, and A = absorption of the sample at irradiation wavelength.

[3] = Photostability (absorption spectra upon irradiation); assay type: physicochemical; details: 450 nm, 0 to 10 min (13.2 J cm^−2), air-saturated acetonitrile
Procedure: The sample was prepared in an air-saturated acetonitrile solution. Using a Atlas Photonics LUMOS BIO irradiator, the sample was constantly irradiated at 450 nm in time intervals from 0 to 10 min (13.2 J cm^−2). The absorption spectra from 350 to 700 nm was monitored with a SpectraMax M2 Microplate Reader (Molecular Devices) at each time interval. As positive and negative controls, respectively, [Ru(2,2′-bipyridine)3]Cl2 and Protoporphyrin IX were used.

[4] = Distribution coefficient (shake-flask, octanol/PBS); assay type: physicochemical; details: ICP-MS
Procedure: Using the “shake-flask” method, the distribution coefficient between the PBS and octanol phase of the sample was determined. The PBS and octanol phases were previously saturated in each other. The sample was dissolved in the phase, which is dissolving best the compound. This solution was added to an equal volume of the other phase and mixed at 190 rpm overnight with a sample mixer. Following this, the solutions were equilibrated for 4 h. The phases were carefully separated from each other. The amount of the sample in each phase was determined by ICP-MS. The evaluation was repeated three times and the ratio between the organic and aqueous phase determined.

[5] = test system: human cervical carcinoma (HeLa) cells; assay: (Photo-)cytotoxicity on 2D cell monolayers, HeLa; assay type: cell-based; details: for IC50: 1-3 as chloride salts; for PI (480 nm): dark vs 480 nm; for PI (540 nm): dark vs 540 nm
Procedure: (§1) A total of 4 × 10^3 cells were seeded on 96-well plates and allowed to adhere overnight. The cells were treated with increasing concentrations of the sample diluted in cell media achieving a total volume of 200 μL. The cells were incubated with the sample for 8 h and, after this time, the medium refreshed. To study the phototoxic effect of the sample, the cells were exposed to 480 nm (spectral half-width: 20 nm, 10 min, 5.2 mW cm^−2, 3.1 J cm^−2) or 540 nm (spectral half-width: 30 nm, 40 min, 4.0 mW cm^−2, 9.5 J cm^−2) light using an Atlas Photonics LUMOS BIO irradiator. To study the dark cytotoxicity of the sample, the cells were not irradiated and the medium exchanged. The cells were grown for an additional 40 h at 37 °C. After this time, the medium was replaced with fresh medium containing resazurin with a final concentration of 0.2 mg mL^−1. The cells were incubated for 4 h and the amount of the fluorescent product resorufin determined (λex = 540 nm, λem = 590 nm) with a SpectraMax M2 Microplate Reader (Molecular Devices). The obtained data was analyzed with the GraphPad Prism software.

[6] = test system: noncancerous retinal pigment epithelium (RPE-1) cells
Procedure: as §1

[7] = test system: mouse colon carcinoma (CT-26) cells
[8] = test system: human glioblastoma astrocytoma (U373) cells;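 further: Resazurin-to-resorufin fluorescence viability readout, 8 h compound exposure then medium change, light dose 3.1 J cm^−2 at 480 nm or 9.5 J cm^−2 at 540 nm, analysed 40 h later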
Procedure: as §1

[9] = test system: human glioblastoma astrocytoma (U373) cells; assay: (Photo-)cytotoxicity on 2D cell monolayers, U373; details: for PI (480 nm): U373, dark vs 480 nm; for PI (540 nm): U373, dark vs 540 nm; for IC50: 1-3 as chloride salts;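 on all read-outs here: Resazurin-to-resorufin fluorescence viability readout, 8 h compound exposure then medium change, light dose 3.1 J cm^−2 at 480 nm or 9.5 J cm^−2 at 540 nm, analysed 40 h later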
Procedure: as §1

[10] = test system: noncancerous retinal pigment epithelium (RPE-1) cells; assay: (Photo-)cytotoxicity on 2D cell monolayers, RPE-1; details: for PI (480 nm): RPE-1, dark vs 480 nm; for PI (540 nm): RPE-1, dark vs 540 nm; for IC50: 1-3 as chloride salts
Procedure: as §1

[11] = Two-photon absorption cross section; assay type: physicochemical; details: dichloromethane
Procedure: The two-photon absorption cross section spectra of the sample was determined upon direction comparison to Rhodamine B. The sample was irradiated with an OpoletteTM 355II (pulse width ≤ 100 fs, 80 MHz repetition rate, Spectra Physics Inc.) laser. The experimental excitation and detection conditions were conducted with negligible reabsorption processes, which could affect two-photon absorption measurements. The quadratic dependence of the two-photon induced luminescence intensity on the excitation power was verified at an excitation wavelength of 800 nm. The two-photon absorption cross section was calculated using the following equation:1 σ2,sample=σ2,reference×Φreference×creference×Isample×nsample/Φsample×csample×Ireference×nreference,
σ2 = two-photon cross section, Φ = luminescence quantum yield, c = concentration, I = integrated luminescence intensity, n = refractive index

[12] = 480 nm, read-out: IC50 480 nm (10 min, 3.1 J cm-2)
[13] = 540 nm, read-out: IC50 540 nm (40 min, 9.5 J cm-2)
[14] = read-out: IC50 480 nm (10 min, 3.1 J cm-2), U373, 480 nm
[15] = read-out: IC50 dark, U373, dark
[16] = read-out: IC50 540 nm (40 min, 9.5 J cm-2), RPE-1, 540 nm
[17] = read-out: IC50 dark, RPE-1, dark

Row | Compound | Φem, luminescence quantum yield [1] | λem, emission maximum [1] | τ air, excited state lifetime (Excited state lifetime) | τ degassed, excited state lifetime (Excited state lifetime) | Singlet oxygen quantum yield, Direct 450 nm CH3CN [2] | photostability (change of absorption spectra upon irradiation) [3] | logD (octanol/PBS) [4] | IC50 [5, 12] | IC50 [5, 13] | PI (480 nm) [5] | PI (540 nm) [5] | IC50 ([5]; dark, read-out: IC50 dark) | IC50 [6] | IC50 [7] | IC50 [8] | PI (480 nm) [9] | PI (540 nm) [9] | IC50 [9, 14] | IC50 [9, 15] | PI (480 nm) [10] | further results
1 | COc1ccc(/C=C/c2ccnc(-c3cc(/C=C/c4ccc(OC)cc4)ccn3)c2)cc1.F[P-](F)(F)(F)(F)F.F[P-](F)(F)(F)(F)F.[Ru+2].c1ccc(-c2ccccn2)nc1.c1ccc(-c2ccccn2)nc1 [compound 7, [Ru(2,2′-bipyridine)2((E,E′)-4,4′-Bis[p-methoxystyryl]-2,2′-bipyridine)][PF6]2] | 2.8% | 664 nm | 96 ns | 542 ns | 75% | no significant differences in the absorption spectra | +0.5 ± 0.2 | 1.2 µM | 1.5 µM | > 83.3 | > 66.7 | > 100 µM | 3.1 µM | 0.7 ± 0.4 µM | 13.5 µM | > 9.5 | > 7.4 | 10.5 µM | > 100 µM | > 32.3 | PI (540 nm) [10]: > 11.9; IC50 [10, 16]: 8.4 µM; IC50 [10, 17]: > 100 µM
2 | CN(C)c1ccc(/C=C/c2ccnc(-c3cc(/C=C/c4ccc(N(C)C)cc4)ccn3)c2)cc1.CN(C)c1ccc(/C=C/c2ccnc(-c3cc(/C=C/c4ccc(N(C)C)cc4)ccn3)c2)cc1.CN(C)c1ccc(/C=C/c2ccnc(-c3cc(/C=C/c4ccc(N(C)C)cc4)ccn3)c2)cc1.F[P-](F)(F)(F)(F)F.F[P-](F)(F)(F)(F)F.[Ru+2] [compound 2, [Ru((E,E′)-4,4′-Bis[p-(N,N-dimethylamino)styryl]-2,2′-bipyridine)3][PF6]2] | > 0.1% | 709 nm | 48 ns | 222 ns | 18% | small changes in the absorption spectra | +2.7 ± 0.4 | 29.4 µM | 52.3 µM | > 3.4 | > 1.9 | > 100 µM | 38.4 µM | 42.6 µM | 61.4 µM | > 2.0 | > 1.6 | 49.1 µM | > 100 µM | > 2.6 | σ2, 2P absorption cross section [11]: 2175 GM; PI (540 nm) [10]: > 2.0; IC50 [10, 16]: 49 µM; IC50 [10, 17]: > 100 µM
3 | C(=C\c1ccnc(-c2cc(/C=C/c3ccccc3)ccn2)c1)/c1ccccc1.C(=C\c1ccnc(-c2cc(/C=C/c3ccccc3)ccn2)c1)/c1ccccc1.C(=C\c1ccnc(-c2cc(/C=C/c3ccccc3)ccn2)c1)/c1ccccc1.F[P-](F)(F)(F)(F)F.F[P-](F)(F)(F)(F)F.[Ru+2] [compound 1] | 1.9% | 677 nm | 86 ns | 385 ns | 65% | no significant differences in the absorption spectra | +2.6 ± 0.4 | 29.5 µM | 48.7 µM | > 3.4 | > 2.1 | > 100 µM | 30.9 µM | 20.3 µM | 83.1 µM | > 1.9 | > 1.2 | 51.7 µM | > 100 µM | > 3.2 | σ2, 2P absorption cross section [11]: 147 GM; PI (540 nm) [10]: > 3.2; IC50 [10, 16]: 31.7 µM; IC50 [10, 17]: > 100 µM
4 | COc1ccc(/C=C/c2ccnc(-c3cc(/C=C/c4ccc(OC)cc4)ccn3)c2)cc1.COc1ccc(/C=C/c2ccnc(-c3cc(/C=C/c4ccc(OC)cc4)ccn3)c2)cc1.COc1ccc(/C=C/c2ccnc(-c3cc(/C=C/c4ccc(OC)cc4)ccn3)c2)cc1.F[P-](F)(F)(F)(F)F.F[P-](F)(F)(F)(F)F.[Ru+2] [compound 3, [Ru((E,E′)-4,4′-Bis[p-methoxystyryl]-2,2′-bipyridine)3][PF6]2] | 1.1% | 682 nm | 76 ns | 338 ns | 52% | no significant differences in the absorption spectra | +2.3 ± 0.3 | 15.3 µM | 11.3 µM | > 6.5 | > 8.8 | > 100 µM | 53.6 µM | 19.3 µM | 51.3 µM | > 2.4 | > 1.9 | 41 µM | > 100 µM | > 1.9 | σ2, 2P absorption cross section [11]: 573 GM; PI (540 nm) [10]: > 2.2; IC50 [10, 16]: 44.9 µM; IC50 [10, 17]: > 100 µM
